According to ChEMBL document CHEMBL5291721, “A preclinical secondary pharmacology resource illuminates target-adverse drug reaction associations of marketed drugs” (Nat Commun, 2023):

Assays:
[1] = molecular target: T1, Alpha-1A adrenergic receptor (Homo sapiens, UniProt P35348); format: functional, cell-based
T1 sequence (P35348 whole entry): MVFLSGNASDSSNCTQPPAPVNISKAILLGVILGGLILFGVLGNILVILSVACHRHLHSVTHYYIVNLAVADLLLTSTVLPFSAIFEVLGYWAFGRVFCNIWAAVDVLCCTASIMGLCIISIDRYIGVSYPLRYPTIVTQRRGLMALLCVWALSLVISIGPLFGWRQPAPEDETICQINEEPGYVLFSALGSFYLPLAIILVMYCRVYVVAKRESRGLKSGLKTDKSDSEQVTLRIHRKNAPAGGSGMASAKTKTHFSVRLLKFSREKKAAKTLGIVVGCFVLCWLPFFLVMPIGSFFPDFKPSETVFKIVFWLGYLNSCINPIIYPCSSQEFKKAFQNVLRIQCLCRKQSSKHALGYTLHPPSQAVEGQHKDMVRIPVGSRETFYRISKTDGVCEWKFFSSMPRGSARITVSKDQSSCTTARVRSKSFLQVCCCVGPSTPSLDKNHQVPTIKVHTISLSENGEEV

[2] = molecular target: T2, Alpha-2A adrenergic receptor (Homo sapiens, UniProt P08913)
T2 sequence (P08913 whole entry): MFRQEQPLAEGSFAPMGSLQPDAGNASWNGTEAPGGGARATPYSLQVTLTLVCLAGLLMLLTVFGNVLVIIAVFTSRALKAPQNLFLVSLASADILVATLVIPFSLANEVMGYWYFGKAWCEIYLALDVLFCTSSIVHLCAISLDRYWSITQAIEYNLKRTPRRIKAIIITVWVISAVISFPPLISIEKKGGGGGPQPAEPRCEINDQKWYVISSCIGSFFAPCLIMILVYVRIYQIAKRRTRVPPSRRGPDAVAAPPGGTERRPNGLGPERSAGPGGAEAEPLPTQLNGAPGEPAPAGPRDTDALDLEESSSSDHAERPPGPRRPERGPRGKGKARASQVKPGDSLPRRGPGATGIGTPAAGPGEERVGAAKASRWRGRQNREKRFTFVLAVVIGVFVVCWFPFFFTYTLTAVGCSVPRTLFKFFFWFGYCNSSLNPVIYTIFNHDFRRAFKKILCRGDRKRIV

D(1A) dopamine receptor = D(1A) dopamine receptor (Homo sapiens, UniProt P21728)
Sequence of D(1A) dopamine receptor (P21728 whole entry): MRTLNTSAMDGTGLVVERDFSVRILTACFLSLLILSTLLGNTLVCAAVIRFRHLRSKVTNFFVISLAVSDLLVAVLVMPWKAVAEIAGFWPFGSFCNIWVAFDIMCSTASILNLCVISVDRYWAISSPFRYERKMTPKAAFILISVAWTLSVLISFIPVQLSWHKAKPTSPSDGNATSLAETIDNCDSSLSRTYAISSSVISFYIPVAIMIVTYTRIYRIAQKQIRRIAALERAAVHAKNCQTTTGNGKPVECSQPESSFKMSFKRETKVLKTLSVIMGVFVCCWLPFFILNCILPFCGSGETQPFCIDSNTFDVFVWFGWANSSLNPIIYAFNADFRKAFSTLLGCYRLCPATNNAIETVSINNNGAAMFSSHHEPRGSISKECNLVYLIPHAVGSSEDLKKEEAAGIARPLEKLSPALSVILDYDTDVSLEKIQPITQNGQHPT

Prothrombin = Prothrombin (Homo sapiens, UniProt P00734); format: functional
[3] = molecular target: T3, 5-hydroxytryptamine receptor 1A (Homo sapiens, UniProt P08908)
T3 sequence (P08908 whole entry): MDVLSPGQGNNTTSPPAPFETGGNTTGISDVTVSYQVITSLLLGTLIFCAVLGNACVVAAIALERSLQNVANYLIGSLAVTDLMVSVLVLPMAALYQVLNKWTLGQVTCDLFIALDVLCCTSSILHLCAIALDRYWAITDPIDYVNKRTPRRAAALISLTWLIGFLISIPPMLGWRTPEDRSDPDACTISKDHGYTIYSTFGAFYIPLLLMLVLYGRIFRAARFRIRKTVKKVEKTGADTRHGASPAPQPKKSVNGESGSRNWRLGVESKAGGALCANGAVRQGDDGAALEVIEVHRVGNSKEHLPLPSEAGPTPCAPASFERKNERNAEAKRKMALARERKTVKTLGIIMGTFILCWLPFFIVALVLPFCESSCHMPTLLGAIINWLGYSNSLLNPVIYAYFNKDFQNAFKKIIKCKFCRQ

[4] = molecular target: T4, Amine oxidase [flavin-containing] A (Homo sapiens, UniProt P21397); format: functional
T4 sequence (P21397 whole entry): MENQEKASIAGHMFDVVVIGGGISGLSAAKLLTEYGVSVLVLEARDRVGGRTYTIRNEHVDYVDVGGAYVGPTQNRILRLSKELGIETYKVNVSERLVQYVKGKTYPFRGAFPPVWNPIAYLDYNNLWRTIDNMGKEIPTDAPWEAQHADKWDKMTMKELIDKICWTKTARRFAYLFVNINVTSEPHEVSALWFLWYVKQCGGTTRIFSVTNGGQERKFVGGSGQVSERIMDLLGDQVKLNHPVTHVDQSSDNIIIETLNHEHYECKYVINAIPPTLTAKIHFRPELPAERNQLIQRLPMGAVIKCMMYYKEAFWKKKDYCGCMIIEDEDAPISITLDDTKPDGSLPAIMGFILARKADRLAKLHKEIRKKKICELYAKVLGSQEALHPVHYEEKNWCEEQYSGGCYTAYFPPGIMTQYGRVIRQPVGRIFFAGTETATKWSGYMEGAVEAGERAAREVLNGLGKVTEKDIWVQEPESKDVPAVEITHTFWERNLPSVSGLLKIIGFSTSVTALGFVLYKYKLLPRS

Thromboxane A2 receptor = molecular target: T5, Thromboxane A2 receptor (Homo sapiens, UniProt P21731); format: functional, cell-based
T5 sequence (P21731 whole entry): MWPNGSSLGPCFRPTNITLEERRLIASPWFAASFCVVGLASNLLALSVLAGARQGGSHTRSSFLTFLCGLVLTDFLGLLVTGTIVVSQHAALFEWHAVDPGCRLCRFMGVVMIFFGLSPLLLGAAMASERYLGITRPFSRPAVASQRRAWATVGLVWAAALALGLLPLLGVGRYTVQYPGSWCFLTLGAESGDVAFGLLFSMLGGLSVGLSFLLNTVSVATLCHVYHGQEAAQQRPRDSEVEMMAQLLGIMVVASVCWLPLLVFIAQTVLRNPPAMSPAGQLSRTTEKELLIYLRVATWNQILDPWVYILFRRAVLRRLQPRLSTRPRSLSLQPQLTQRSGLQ

[5] = molecular target: T6, Muscarinic acetylcholine receptor M1 (Homo sapiens, UniProt P11229); format: functional, cell-based
T6 sequence (P11229 whole entry): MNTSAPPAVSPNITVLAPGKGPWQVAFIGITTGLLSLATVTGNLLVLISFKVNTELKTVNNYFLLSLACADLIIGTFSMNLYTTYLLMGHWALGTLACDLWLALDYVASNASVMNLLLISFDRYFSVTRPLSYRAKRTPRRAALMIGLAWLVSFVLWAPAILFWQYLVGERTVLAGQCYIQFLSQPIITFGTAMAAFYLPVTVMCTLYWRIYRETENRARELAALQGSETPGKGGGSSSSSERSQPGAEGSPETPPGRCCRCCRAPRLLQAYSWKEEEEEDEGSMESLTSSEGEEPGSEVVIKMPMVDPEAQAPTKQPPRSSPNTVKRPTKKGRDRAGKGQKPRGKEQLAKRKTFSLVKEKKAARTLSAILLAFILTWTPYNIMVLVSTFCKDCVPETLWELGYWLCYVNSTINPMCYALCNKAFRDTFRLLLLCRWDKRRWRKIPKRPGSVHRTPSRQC

[6] = molecular target: T6, Muscarinic acetylcholine receptor M1; format: functional, cell-based; remark: listed apart in the source
[7] = molecular target: Sodium-dependent serotonin transporter (Homo sapiens, UniProt P31645)
Sequence of Sodium-dependent serotonin transporter (P31645 whole entry): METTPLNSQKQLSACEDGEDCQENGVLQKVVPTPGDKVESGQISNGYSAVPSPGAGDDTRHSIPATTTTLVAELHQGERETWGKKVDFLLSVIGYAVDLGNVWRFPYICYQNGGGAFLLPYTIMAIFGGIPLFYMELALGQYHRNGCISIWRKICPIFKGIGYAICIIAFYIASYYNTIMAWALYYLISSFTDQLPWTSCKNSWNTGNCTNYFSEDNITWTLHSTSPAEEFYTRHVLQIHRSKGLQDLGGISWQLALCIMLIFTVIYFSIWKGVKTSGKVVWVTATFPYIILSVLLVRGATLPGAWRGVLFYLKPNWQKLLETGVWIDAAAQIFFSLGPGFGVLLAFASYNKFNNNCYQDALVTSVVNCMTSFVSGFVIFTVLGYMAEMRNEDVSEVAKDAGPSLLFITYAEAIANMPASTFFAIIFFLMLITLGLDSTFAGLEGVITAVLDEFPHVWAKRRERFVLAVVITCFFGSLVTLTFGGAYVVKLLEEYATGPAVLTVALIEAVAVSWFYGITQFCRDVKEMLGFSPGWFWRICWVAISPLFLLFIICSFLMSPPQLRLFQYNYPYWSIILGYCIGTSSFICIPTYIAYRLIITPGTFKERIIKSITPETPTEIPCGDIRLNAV
Also: assay procedure not described here.

SMILES | AC50 [1] [µM] | AC50 [2] [µM] | AC50 (D(1A) dopamine receptor) [µM] | AC50 (Prothrombin) [µM] | AC50 [3] [µM] | AC50 [4] [µM] | AC50 (Thromboxane A2 receptor) [µM] | AC50 [5] [µM] | AC50 [6] [µM] | AC50 [7] [µM]
O=c1[nH]c(=O)n([C@H]2C[C@H](O)[C@@H](CO)O2)cc1F [FLOXURIDINE] | > 30 | > 30 | > 30 | > 30 | > 30 | > 30 | > 30 |  |  | 
O=c1[nH]c(=O)n(C2CCCO2)cc1F (stereo not given) [TEGAFUR] | > 30 | > 30 | > 30 | > 30 | > 30 | > 30 | > 30 |  |  | 
CC[C@]1(O)C[C@H]2CN(CCc3c([nH]c4ccccc34)[C@@](C(=O)OC)(c3cc4c(cc3OC)N(C=O)[C@H]3[C@@](O)(C(=O)OC)[C@H](OC(C)=O)[C@]5(CC)C=CCN6CC[C@]43[C@@H]65)C2)C1 [VINCRISTINE] | > 30 | > 30 | > 30 | > 30 | > 30 | > 30 | > 30 |  |  | 
CCOc1ccc(Cc2cc([C@@H]3O[C@H](CO)[C@@H](O)[C@H](O)[C@H]3O)ccc2Cl)cc1 [DAPAGLIFLOZIN] | > 30 | > 30 | > 30 | > 30 | > 30 | > 30 | > 30 | > 30 | > 30 | 
COc1ccccc1N1CCN(CC(O)COc2cccc3ccccc23)CC1 (stereo not given) [NAFTOPIDIL] |  | 0.29 | 2.08 | > 30 | 0.0086 | > 30 | > 30 |  |  | 1.43
Cc1oc(=O)oc1CN1CCN(c2cc3c(cc2F)c(=O)c(C(=O)O)c2n3C(C)S2)CC1 (stereo not given) [PRULIFLOXACIN] |  | > 30 | > 30 | > 30 | > 30 | > 30 | > 30 |  |  | > 30
CCCC1O[C@@H]2C[C@H]3[C@@H]4CCC5=CC(=O)C=C[C@]5(C)[C@H]4[C@@H](O)C[C@]3(C)[C@]2(C(=O)CO)O1 (stereo not given in full) [BUDESONIDE] | > 30 | > 30 | > 30 | > 30 | > 30 | > 30 | > 30 |  |  | 
COc1cc([C@@H]2c3cc4c(cc3[C@H](O)[C@H]3COC(=O)[C@H]23)OCO4)cc(OC)c1OC [PODOFILOX] | 6.56 | > 30 | > 30 | > 30 | > 30 | > 30 | > 30 |  |  | 
CCN1CCCC1CNC(=O)c1cc(S(N)(=O)=O)ccc1OC (stereo not given) [SULPIRIDE] | > 30 | 7.52 | 16.5 | > 30 | > 30 | > 30 | > 30 |  |  | 
CC[C@H]1CN2CCc3cc(OC)c(OC)cc3[C@@H]2C[C@@H]1C[C@H]1NCCc2cc(OC)c(OC)cc21 [EMETINE] |  | 0.09 | 15.7 | > 30 | 22.7 | > 30 | > 30 |  |  | 
C=CCCCCCCCCC(=O)O [UNDECYLENIC ACID] |  | > 30 | > 30 | > 30 | > 30 | > 30 | > 30 |  |  | > 30
COc1ccc2c(c1)N(C[C@H](C)CN(C)C)c1ccccc1S2 [LEVOMEPROMAZINE] |  |  |  | > 30 | 2.84 | > 30 | > 30 | > 30 | 0.331 | > 30
O=c1[nH]c(=O)n([C@H]2C[C@H](O)[C@@H](CO)O2)cc1I [IDOXURIDINE] | > 30 | > 30 | > 30 | > 30 | > 30 | > 30 | > 30 |  |  | 
Clc1cc(Cl)c(OCC#CI)cc1Cl [HALOPROGIN] | > 30 | 17.7 |  | > 30 | > 30 | > 30 | > 30 |  |  | 
Nc1nc2nc[nH]c2c(=S)[nH]1 [THIOGUANINE] | > 30 | > 30 | > 30 | > 30 | > 30 | > 30 | > 30 |  |  | 
Cc1cc(C)c(NC(=O)CN(CC(=O)O)CC(=O)O)c(C)c1Br [MEBROFENIN] |  | > 30 | > 30 | > 30 | > 30 | > 30 | > 30 |  |  | > 30
COc1cc2c3cc1Oc1cc(ccc1O)C[C@@H]1c4c(cc(OC)c(O)c4Oc4ccc(cc4)C[C@@H]3N(C)CC2)CC[N+]1(C)C [TUBOCURARINE] | > 30 | > 30 | > 30 | > 30 | > 30 | > 30 | > 30 |  |  | 
Nc1ccc2cc3ccc(N)cc3nc2c1 [PROFLAVINE] |  | 7.27 | 10.6 | 9.65 | 17.2 | 0.786 | > 0.3 | > 0.3 |  | 26.6
CCOc1ccccc1OCC1CNCCO1 (stereo not given) [VILOXAZINE] | > 30 | > 30 | > 30 | > 30 | 9.72 | > 30 | > 30 | > 30 | > 30 | 
COc1cc2nc(N3CCN(C(=O)c4ccco4)CC3)nc(N)c2cc1OC [PRAZOSIN] |  |  | 8.64 | > 10 |  | > 30 | > 30 |  |  | 
